Patent US8592454B2, “Nitrogen-containing heterocyclic compound and use of same” (Takeda Pharmaceutical Company Limited, priority 2008, dated 2013)
Counter-ions that a name gives are not always drawn. Like-named read-outs stand apart in the source and are kept apart here.

Key:
[1] = biological target: Human NK2 (hNK2) receptor (Homo sapiens (Human), UniProt P21452); experiment: Human NK2 receptor binding assay: radioligand ([125I]-NK-A) binding inhibitory activity using membrane fraction of CHO cell expressing human NK2 (hNK2) receptor; settings: hNK2 receptor binding inhibition
Sequence of Human NK2 (hNK2) receptor (P21452 whole entry): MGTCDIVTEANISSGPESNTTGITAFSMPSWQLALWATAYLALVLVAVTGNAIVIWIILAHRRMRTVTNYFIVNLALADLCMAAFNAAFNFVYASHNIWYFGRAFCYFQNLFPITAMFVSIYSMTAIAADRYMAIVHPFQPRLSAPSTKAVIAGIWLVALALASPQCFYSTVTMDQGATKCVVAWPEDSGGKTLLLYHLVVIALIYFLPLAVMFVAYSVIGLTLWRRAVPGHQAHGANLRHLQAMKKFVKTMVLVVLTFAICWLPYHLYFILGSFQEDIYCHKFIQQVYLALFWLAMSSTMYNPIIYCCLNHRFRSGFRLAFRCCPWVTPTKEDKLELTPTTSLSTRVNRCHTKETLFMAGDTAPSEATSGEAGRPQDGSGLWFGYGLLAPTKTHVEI
Description: Human NK2 Receptor Binding Assay

Human NK1 Receptor = Human NK1 Receptor (Homo sapiens (Human), UniProt P25103); experiment: Human NK1 receptor binding assay: radioligand (125I-Bolton-Hunter-SP) binding inhibitory activity using receptor from human lymphoblast cells (IM-9); settings: hNK1 receptor binding inhibition
Sequence of Human NK1 Receptor (P25103 whole entry): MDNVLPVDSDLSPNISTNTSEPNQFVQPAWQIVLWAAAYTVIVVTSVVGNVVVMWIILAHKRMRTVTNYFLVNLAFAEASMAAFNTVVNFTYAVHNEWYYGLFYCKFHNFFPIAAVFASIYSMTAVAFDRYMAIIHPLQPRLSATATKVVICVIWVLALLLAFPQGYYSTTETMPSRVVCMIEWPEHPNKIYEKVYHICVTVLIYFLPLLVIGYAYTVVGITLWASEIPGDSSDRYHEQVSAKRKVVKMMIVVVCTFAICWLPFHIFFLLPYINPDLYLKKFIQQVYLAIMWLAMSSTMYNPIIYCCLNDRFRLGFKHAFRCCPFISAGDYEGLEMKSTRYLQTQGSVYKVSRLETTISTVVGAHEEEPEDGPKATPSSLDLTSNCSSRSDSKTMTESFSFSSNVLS

[2] = biological target: Human NK3 (hNK3) receptor (Homo sapiens (Human), UniProt P29371)
Sequence of Human NK3 (hNK3) receptor (P29371 whole entry): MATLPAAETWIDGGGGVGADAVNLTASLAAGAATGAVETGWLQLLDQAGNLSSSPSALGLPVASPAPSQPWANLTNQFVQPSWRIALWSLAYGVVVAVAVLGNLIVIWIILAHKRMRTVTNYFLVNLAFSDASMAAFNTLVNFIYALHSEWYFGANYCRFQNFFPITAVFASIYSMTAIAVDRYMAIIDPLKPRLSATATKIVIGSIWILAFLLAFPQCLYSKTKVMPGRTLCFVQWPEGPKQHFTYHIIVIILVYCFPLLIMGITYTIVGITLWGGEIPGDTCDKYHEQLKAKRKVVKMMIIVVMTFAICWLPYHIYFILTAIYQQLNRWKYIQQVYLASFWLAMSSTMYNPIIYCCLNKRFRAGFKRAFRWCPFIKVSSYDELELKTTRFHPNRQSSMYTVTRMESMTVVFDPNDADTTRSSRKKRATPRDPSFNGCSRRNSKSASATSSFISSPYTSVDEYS
Description: Human NK3 Receptor Binding Assay
CHO cells expressing hNK3 receptor were cultured in a MEMα medium (Nikken Seibutsu Igaku Kenkyusho, K.K.) containing 100 U/mL penicillin, 100 μg/mL streptomycin and 10% inactivated dialyzed serum. The medium was removed, the adhered cells were washed with PBS, and PBS containing 5 mM EDTA was added to detach the cells from the flask. The cells were collected by centrifugation, suspended in suspension buffer A (50 mM Tris-HCl (pH 7.4) containing 120 mM NaCl, 5 mM KCl, 2 μg/mL chymostatin, 40 μg/mL bacitracin, 40 μg/ml APMSF, 1 mM EDTA), disrupted by a Polytron homogenizer (Kinematika), and centrifuged at 800×g for 10 min. The supernatant was recovered and ultracentrifuged at 100,000×g for 25 min. The precipitation fraction was suspended in suspension buffer B (50 mM Tris-HCl (pH 7.4), 0.02% bovine serum albumin, 2 μg/ml chymostatin, 40 μg/ml bacitracin, 40 μg/mL APMSF, 3 mM MnCl2), and cryopreserved (−80° C.) as a receptor reference standard.
Measurement buffer (50 mM Tris-HCl (pH 7.4), 0.02% bovine serum albumin, 2 μg/ml chymostatin, 40 μg/mL bacitracin, 40 μg/mL APMSF, 3 mM MnCl2) (50 μL) was added to a 96-well microassay plate. The membrane reference standard (300 μg/mL) suspended in a measurement buffer was added by 50 μL. […] Furthermore, 400 μM [^125I]-NK-B (Neurokinin-B (N-Me-Phe^7), [^125I]His^3-) (PerkinElmer) solution was added to each well by 50 μL.
After reaction at 25° C. for 30 min, the reaction was quenched using a cell harvester (PerkinElmer) by rapid filtration on a GF/C filter plate, and the cells were washed 5 times with 250 μL of a 50 mM Tris-HCl buffer (pH 7.4) containing 0.02% bovine serum albumin. The GF/C filter plate was dried, MicroScinti-0 (Perkin Elmer) was added by 20 μL, and the radioactivity was measured on a TopCount (PerkinElmer). The GF/C filter plate used had been immersed in 0.3% polyethyleneimine for one day.
The specific binding level is shown by a value obtained by subtracting non-specific binding level from the total binding level. The binding inhibitory activity of the test compound is shown by a ratio of the value obtained by subtracting the measurement value with addition of a test compound from the total binding level, to the value of the specific binding level.

[3] = read-out: IC50 value hNK3, hNK3 receptor binding inhibition

| SMILES | IC50 [1] | IC50 (Human NK1 Receptor) | IC50 [2, 3] | IC50 [2] |
| --- | --- | --- | --- | --- |
| CC(=O)N1CCC(C(=O)N2CC[C@@H](N(C)C(=O)N(C)c3cc(C(F)(F)F)cc(C(F)(F)F)c3)[C@H](c3ccc(F)cc3)C2)CC1 (relative stereo) [Example 4, 1-[(3R*,4R*)-1-[(1-acetylpiperidin-4-yl)carbonyl]-3-(4-fluorophenyl)piperidin-4-yl]-3-[3,5-bis(trifluoromethyl)phenyl]-1,3-dimethylurea] | 4200 nM | 0.11 nM |  |  |
| CC(=O)N1CCC(C(=O)N2CC[C@@H](N(C)C(=O)Nc3ccc(Cl)cc3)[C@H](c3ccc(Cl)c(Cl)c3)C2)CC1 [Example 61, 1-[(3R,4R)-1-[(1-acetylpiperidin-4-yl)carbonyl]-3-(3,4-dichlorophenyl)piperidin-4-yl]-3-(4-chlorophenyl)-1-methylurea] | > 100 nM | 290 nM | 99 nM |  |
| CN(C(=O)N(C)[C@@H]1CCN(C2CCS(=O)(=O)CC2)C[C@H]1c1ccc(F)cc1)c1cc(C(F)(F)F)cc(C(F)(F)F)c1 [Example 104, 1-[3,5-bis(trifluoromethyl)phenyl]-3-[(3R,4R)-1-(1,1-dioxidetetrahydro-2H-thiopyran-4-yl)-3-(4-fluorophenyl)piperidin-4-yl]-1,3-dimethylurea monohydrochloride] | 100 nM | 0.073 nM |  |  |
| CC(=O)N1CCC(C(=O)N2C[C@@H](N(C)C(=O)N(C)c3cc(C(F)(F)F)cc(C(F)(F)F)c3)[C@H](c3ccc(F)cn3)C2)CC1 [Example 192, 1-[(3S,4R)-1-[(1-acetylpiperidin-4-yl)carbonyl]-4-(5-fluoropyridin-2-yl)pyrrolidin-3-yl]-3-[3,5-bis(trifluoromethyl)phenyl]-1,3-dimethylurea] | 120 nM | 0.032 nM |  | 4400 nM |
| COC(=O)N[C@H]1CC[C@H](C(=O)N2C[C@@H](N(C)C(=O)N(C)c3cc(C(F)(F)F)cc(C(F)(F)F)c3)[C@H](c3ccc(F)cc3)C2)CC1 [Example 233, methyl (trans-4-{[(3S,4R)-3-[{[3,5-bis(trifluoromethyl)phenyl](methyl)carbamoyl}(methyl)amino]-4-(4-fluorophenyl)pyrrolidin-1-yl]carbonyl}cyclohexyl)carbamate] | 42 nM | 0.049 nM | 1100 nM |  |
| CN(C(=O)N(C)[C@@H]1CN(C(=O)NC2CCOCC2)C[C@H]1c1ccc(F)cc1)c1cc(C(F)(F)F)cc(C(F)(F)F)c1 [Example 378, (3S,4R)-3-[{[3,5-bis(trifluoromethyl)phenyl](methyl)carbamoyl}(methyl)amino]-4-(4-fluorophenyl)-N-(tetrahydro-2H-pyran-4-yl)pyrrolidine-1-carboxamide] | 59 nM | 0.039 nM | 650 nM |  |
| CN(C(=O)N(C)[C@@H]1CN(C(=O)N2CCN(S(C)(=O)=O)CC2)C[C@H]1c1ccc(F)cc1)c1cc(Cl)cc(Cl)c1 [Example 420, 1-(3,5-dichlorophenyl)-3-[(3S,4R)-4-(4-fluorophenyl)-1-{[4-(methylsulfonyl)piperazin-1-yl]carbonyl}pyrrolidin-3-yl]-1,3-dimethylurea] | 77 nM | 0.03 nM |  | 120 nM |

Compounds with a lower IC50 [1], results first:

| IC50 [1] | IC50 (Human NK1 Receptor) | IC50 [2, 3] | IC50 [2] | SMILES |
| --- | --- | --- | --- | --- |
| 2 nM | 0.075 nM |  |  | CC(=O)N1CCC(C(=O)N2C[C@@H](N(C)C(=O)N(C)c3cc(C(F)(F)F)cc(C(F)(F)F)c3)[C@H](c3ccc(Cl)c(Cl)c3)C2)CC1 (racemic) [Example 66, 1-[(3S*, 4R*)-1-[(1-acetylpiperidin-4-yl)carbonyl]-4-(3,4-dichlorophenyl)pyrrolidin-3-yl]-3-[3,5-bis(trifluoromethyl)phenyl]-1,3-dimethylurea] |
| 7.1 nM | 0.031 nM | 1400 nM |  | CC(=O)N1CCC(C(=O)N2CC[C@@H](N(C)C(=O)N(C)c3cc(C(F)(F)F)cc(C(F)(F)F)c3)[C@H](c3ccc(Cl)c(Cl)c3)C2)CC1 [Example 25, 1-[(3R,4R)-1-[(1-acetylpiperidin-4-yl)carbonyl]-3-(3,4-dichlorophenyl)piperidin-4-yl]-3-[3,5-bis(trifluoromethyl)phenyl]-1,3-dimethylurea] |
| 7.1 nM | 0.027 nM |  |  | CC(=O)N1CCC(C(=O)N2C[C@@H](N(C)C(=O)N(C)c3cc(C(F)(F)F)cc(C(F)(F)F)c3)[C@H](c3ccc(F)cc3)C2)CC1 [Example 71b] |
| 12 nM | 0.029 nM | 600 nM |  | CC(=O)N1CCC(C(=O)N2C[C@@H](N(C)C(=O)N(C)c3cc(Cl)cc(Cl)c3)[C@H](c3ccc(F)cc3)C2)CC1 [Example 176, 1-[(3S,4R)-1-[(1-acetylpiperidin-4-yl)carbonyl]-4-(4-fluorophenyl)pyrrolidin-3-yl]-3-(3,5-dichlorophenyl)-1,3-dimethylurea] |
| 2.4 nM | 0.07 nM |  |  | CN(C(=O)N(C)[C@@H]1CN(C(=O)C2CCN(C(=O)C(C)(C)O)CC2)C[C@H]1c1ccc(F)cc1)c1cc(C(F)(F)F)cc(C(F)(F)F)c1 [Example 308, 1-[3,5-bis(trifluoromethyl)phenyl]-3-[(3S,4R)-4-(4-fluorophenyl)-1-{[1-(2-hydroxy-2-methylpropanoyl)piperidin-4-yl]carbonyl}pyrrolidin-3-yl]-1,3-dimethylurea] |
